Marks after values point to notes of the source that are not given here.
What was measured:
[1] = test system: patients with acute heart failure (AHF); assay: In-hospital short-term outcomes (worsening heart failure, length of stay, signs of heart failure, diuretic and nitroglycerin use, body weight), Pre-RELAX-AHF trial; type: in vivo, human; settings: for Length of Hospital Stay: mean ± SD
Experimental: (§1) Study Procedures. The study was approved by the relevant ethics committees, institutional review hoards and regulatory authorities, and conducted under the International Conference on Harmonization Good Clinical Practice guidelines. All patients provided informed written consent prior to participation. […] The placebo used for the study was the same solution as the diluent used to prepare the 100 μg/kg/day dose. The randomization ratio was 3:2:2:2:2, respectively, Relaxin (Corthera, San Mateo, Calif.) was manufactured using recombinant techniques and was identical to the naturally-occurring peptide hormone. By protocol, the study drug infusion was to be terminated if the patient's SBP was reduced to <100 mmHg or by >40 mmHg compared to baseline in two successive measurements, 15 minutes apart. Investigators were not prohibited from utilizing any standard medication, thought necessary to treat patients enrolled in the study, including additional vasodilators, following a 4-hour washout period during which time IV vasodilators, IV pure inotropes and meals were withheld, hemodynamic, renal, and clinical responses to 48 hours of study drug infusion were assessed.
(§2) Study Endpoints. […] 4.) Length of initial hospital stay.

[2] = test system: patients with acute heart failure (AHF); assay: Safety endpoints (adverse events, blood pressure, renal impairment, clinical laboratory), Pre-RELAX-AHF trial; type: in vivo, human
Experimental: as §1, §2

[3] = relaxin for 48 hours, AHF patients

Substance: Relaxin
- % of subjects at Day 5 with: JVP <6 cm ([1]; 10 mcg/kg/d IV 48 h): 72.5%
- % of subjects at Day 5 with: No edema ([1]; 10 mcg/kg/d IV 48 h): 55.0%
- % of subjects at Day 5 with: No rales ([1]; 10 mcg/kg/d IV 48 h): 65.0%
- Worsening HF through Day 5 (%) ([1]; 10 mcg/kg/d IV 48 h): 20.0%
- patients receiving intravenous nitroglycerin during the first 24 hours ([1]; 10 mcg/kg/d IV 48 h): 10.0%
- Length of Hospital Stay ([1]; 10 mcg/kg/d IV 48 h): 10.9 ± 8.5 days
- Median change in body weight from baseline to Day 14 [kg; median (Q1; Q3)] ([1]; 10 mcg/kg/d IV 48 h): -2.0 kg
- Median total IV diuretic dose from randomization to Day 5 [mg; median (Q1-Q3)] ([1]; 10 mcg/kg/d IV 48 h): 100 mg
- % of subjects at Day 5 with: JVP <6 cm ([1]; 30 mcg/kg/d IV 48 h): 78.6%
- % of subjects at Day 5 with: No edema ([1]; 30 mcg/kg/d IV 48 h): 64.3 † %
- % of subjects at Day 5 with: No rales ([1]; 30 mcg/kg/d IV 48 h): 76.2%
- Worsening HF through Day 5 (%) ([1]; 30 mcg/kg/d IV 48 h): 11.9%
- patients receiving intravenous nitroglycerin during the first 24 hours ([1]; 30 mcg/kg/d IV 48 h): 9.5%
- Length of Hospital Stay ([1]; 30 mcg/kg/d IV 48 h): 10.2 ± 6.1 days
- Median change in body weight from baseline to Day 14 [kg; median (Q1; Q3)] ([1]; 30 mcg/kg/d IV 48 h): -3.0 kg
- Median total IV diuretic dose from randomization to Day 5 [mg; median (Q1-Q3)] ([1]; 30 mcg/kg/d IV 48 h): 100 mg
- % of subjects at Day 5 with: JVP <6 cm ([1]; 100 mcg/kg/d IV 48 h): 73.0%
- % of subjects at Day 5 with: No edema ([1]; 100 mcg/kg/d IV 48 h): 51.4 * %
- % of subjects at Day 5 with: No rales ([1]; 100 mcg/kg/d IV 48 h): 70.3%
- Worsening HF through Day 5 (%) ([1]; 100 mcg/kg/d IV 48 h): 13.5%
- patients receiving intravenous nitroglycerin during the first 24 hours ([1]; 100 mcg/kg/d IV 48 h): 13.5
- Length of Hospital Stay ([1]; 100 mcg/kg/d IV 48 h): 11.1 ± 6.6 days
- Median change in body weight from baseline to Day 14 [kg; median (Q1; Q3)] ([1]; 100 mcg/kg/d IV 48 h): -2.5 kg
- Median total IV diuretic dose from randomization to Day 5 [mg; median (Q1-Q3)] ([1]; 100 mcg/kg/d IV 48 h): 90 + mg
- % of subjects at Day 5 with: JVP <6 cm ([1]; 250 mcg/kg/d IV 48 h): 76.6 + %
- % of subjects at Day 5 with: No edema ([1]; 250 mcg/kg/d IV 48 h): 61.2 † %
- % of subjects at Day 5 with: No rales ([1]; 250 mcg/kg/d IV 48 h): 71.4%
- Worsening HF through Day 5 (%) ([1]; 250 mcg/kg/d IV 48 h): 10.2%
- patients receiving intravenous nitroglycerin during the first 24 hours ([1]; 250 mcg/kg/d IV 48 h): 4.1%
- Length of Hospital Stay ([1]; 250 mcg/kg/d IV 48 h): 10.6 ± 6.6 days
- Median change in body weight from baseline to Day 14 [kg; median (Q1; Q3)] ([1]; 250 mcg/kg/d IV 48 h): -2.0 kg
- Median total IV diuretic dose from randomization to Day 5 [mg; median (Q1-Q3)] ([1]; 250 mcg/kg/d IV 48 h): 140 mg
- period over which the improvements lasted ([1]; relaxin administered for as little as 48 hours): 14 days
- reduction in excessive body weight due to fluid retention, average loss [1, 3]: about 1 kg
- shorter hospital stays [1, 3]: ≤ 2.5 days
- mean length of stay for the index hospitalization, shorter than for placebo ([1]; relaxin groups 10-250 mcg/kg/d vs placebo): 0.9 to 1.8 days
- Patients with any AE from Day 15 to Day 30, n (%) ([2]; 10 mcg/kg/d IV 48 h): 4 (10.0%) n (%)
- Patients with any SAEs to Day 30, n (%) ([2]; 10 mcg/kg/d IV 48 h): 7 (17.5%) n (%)
- Patients with any adverse events to Day 30, n (%) ([2]; 10 mcg/kg/d IV 48 h): 32 (80.0%) n (%)
- Protocol-specified study drug discontinuation due to blood pressure reduction ([2]; 10 mcg/kg/d IV 48 h): 20.0%
- Renal impairment: Patients with ≧0.3 mg/dL increase in creatinine at Day 5 ([2]; 10 mcg/kg/d IV 48 h): 3 (7.9%) n (%)
- Renal impairment: Patients with ≧0.3 mg/dL increase in creatinine at Day 5 and Day 14 ([2]; 10 mcg/kg/d IV 48 h): 3 (7.5%) n (%)
- Renal impairment: Patients with ≧25% increase in creatinine at Day 5 ([2]; 10 mcg/kg/d IV 48 h): 4 (10.0%) n (%)
- SAE to Day 30: Acute respiratory failure, n (%) ([2]; 10 mcg/kg/d IV 48 h): 0 n (%)
- SAE to Day 30: Bronchitis, n (%) ([2]; 10 mcg/kg/d IV 48 h): 0 n (%)
- SAE to Day 30: Cardiac failure, n (%) ([2]; 10 mcg/kg/d IV 48 h): 2 (5.0%) n (%)
- SAE to Day 30: Cerebrovascular accident, n (%) ([2]; 10 mcg/kg/d IV 48 h): 0 n (%)
- SAE to Day 30: Hypotension, n (%) ([2]; 10 mcg/kg/d IV 48 h): 0 n (%)
- SAE to Day 30: Noncardiac chest pain, n (%) ([2]; 10 mcg/kg/d IV 48 h): 2 (5.0%) n (%)
- SAE to Day 30: Pneumonia, n (%) ([2]; 10 mcg/kg/d IV 48 h): 0 n (%)
- SAE to Day 30: Renal failure, n (%) ([2]; 10 mcg/kg/d IV 48 h): 0 n (%)
- SAE to Day 30: Urinary retention, n (%) ([2]; 10 mcg/kg/d IV 48 h): 0 n (%)
- SAE to Day 30: Urinary tract infection, n (%) ([2]; 10 mcg/kg/d IV 48 h): 0 n (%)
- SAE to Day 30: Ventricular fibrillation, n (%) ([2]; 10 mcg/kg/d IV 48 h): 1 (2.5%) n (%)
- mean change in creatinine from baseline at Day 14 ([2]; 10 mcg/kg/d IV 48 h): 0.07 ± 0.24 mg/dL
- patients requiring treatment of blood pressure reduction ([2]; 10 mcg/kg/d IV 48 h): None of the patients
- proportion of patients at Day 14 with an increase in creatinine of 0.3 mg/dL or more ([2]; 10 mcg/kg/d IV 48 h): 19.4%
- change from baseline in mean hematocrit at 48 hours ([2]; 10 mcg/kg/d IV 48 h, described as transient decrease): 0.57%
- Patients with any AE from Day 15 to Day 30, n (%) ([2]; 30 mcg/kg/d IV 48 h): 5 (11.9%) n (%)
- Patients with any SAEs to Day 30, n (%) ([2]; 30 mcg/kg/d IV 48 h): 7 (16.7%) n (%)
- Patients with any adverse events to Day 30, n (%) ([2]; 30 mcg/kg/d IV 48 h): 25 (59.5%) n (%)
- Protocol-specified study drug discontinuation due to blood pressure reduction ([2]; 30 mcg/kg/d IV 48 h): 9.5%
- Renal impairment: Patients with ≧0.3 mg/dL increase in creatinine at Day 5 ([2]; 30 mcg/kg/d IV 48 h): 7 (18.9%) n (%)
- Renal impairment: Patients with ≧0.3 mg/dL increase in creatinine at Day 5 and Day 14 ([2]; 30 mcg/kg/d IV 48 h): 3 (7.3%) n (%)
- Renal impairment: Patients with ≧25% increase in creatinine at Day 5 ([2]; 30 mcg/kg/d IV 48 h): 9 (22.0%) n (%)
- SAE to Day 30: Acute respiratory failure, n (%) ([2]; 30 mcg/kg/d IV 48 h): 0 n (%)
- SAE to Day 30: Bronchitis, n (%) ([2]; 30 mcg/kg/d IV 48 h): 1 (2.4%) n (%)
- SAE to Day 30: Cardiac failure, n (%) ([2]; 30 mcg/kg/d IV 48 h): 1 (2.4%) n (%)
- SAE to Day 30: Cerebrovascular accident, n (%) ([2]; 30 mcg/kg/d IV 48 h): 2 (4.8%) n (%)

— US9205132B2, “Method of lowering mortality” (CORTHERA, INC., priority 2008, dated 2015)
